Experimental findings from ChEMBL document CHEMBL1128746, “Aminoalkylindoles: structure-activity relationships of novel cannabinoid mimetics” (J Med Chem, 1995) are described below.

In experiment [1] the target is Cannabinoid receptor 1 (Rattus norvegicus) (UniProt P20272). Nature of the experiment: (§1) […] [3H]WIN-55212 binding to Cannabinoid receptor 1 in rat cerebellum membranes. The conditions noted are these: Membrane, concentration not given here. Type of experiment: cell membranes.
The next experiment is filed under the species Mus musculus. Nature of the experiment: Concentration required to inhibit electrically induced contractions in isolated mouse vas deferens preparation in vitro. Type of experiment: functional. The following applies: Mus musculus.
The target of another experiment is Cannabinoid receptor 1 (Rattus norvegicus, UniProt P20272). The experiment is described as §1. It is filed as cell membranes, Membrane.
Cannabinoid receptor 1, sequence (P20272 whole entry): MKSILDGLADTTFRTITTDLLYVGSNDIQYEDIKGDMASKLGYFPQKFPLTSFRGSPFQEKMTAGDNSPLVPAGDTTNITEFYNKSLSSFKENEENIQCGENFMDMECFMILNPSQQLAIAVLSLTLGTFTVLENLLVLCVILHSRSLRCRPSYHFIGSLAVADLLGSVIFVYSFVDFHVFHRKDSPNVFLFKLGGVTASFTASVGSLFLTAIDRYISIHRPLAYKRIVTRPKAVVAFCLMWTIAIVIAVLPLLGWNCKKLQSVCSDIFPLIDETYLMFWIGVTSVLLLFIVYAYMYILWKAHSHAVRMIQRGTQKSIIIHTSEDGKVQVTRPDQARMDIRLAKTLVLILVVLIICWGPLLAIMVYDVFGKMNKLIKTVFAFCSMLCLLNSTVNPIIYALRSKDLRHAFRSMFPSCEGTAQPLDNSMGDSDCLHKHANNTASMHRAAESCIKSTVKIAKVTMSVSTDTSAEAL

Cannabinoid receptor 1 (Rattus norvegicus), sequence (P20272 whole entry): as above

`Cc1c(C(=O)c2ccc(Cl)cc2)c2ccccc2n1CCN1CCOCC1`: the inhibition (usually the drop in the measured response relative to a control, in per cent) in experiment [1] was 62%. Further, it took 564 nM to reach half-maximal inhibition in the experiment filed under Mus musculus (IC50).

`Cc1c(C=O)c2ccccc2n1CCN1CCOCC1`: the inhibition in experiment [1] stood at 37%. Also, the IC50 (in general, the concentration at which inhibition is half-maximal) in the experiment listed under Mus musculus is 656 nM.

Take `Cc1cccc(C)c1C(=O)c1c(C)n(CCN2CCOCC2)c2ccccc12`: the inhibition in experiment [1] is -5%. In the experiment listed under Mus musculus, the IC50 came to 1570 nM.

Turning to `O=C(c1cccc2c1CCCC2)c1cn(CCN2CCOCC2)c2ccccc12`, in experiment [1], the inhibition was 97%. In addition, 6 nM corresponded to half-maximal inhibition in the experiment filed under Mus musculus (IC50).

Take `Cc1c(C(=O)c2ccccc2F)c2ccccc2n1CCN1CCOCC1`: the inhibition in experiment [1] was determined as 15%. Moreover, the IC50 in the experiment listed under Mus musculus turned out to be 1940 nM.

For `Cc1c(C(=O)c2cccc3ccccc23)c2ccccc2n1CCN1CCNCC1`, the inhibition in experiment [1] is -9%.

On to `Cc1[nH]c2ccccc2c1C(=O)c1cccc2ccccc12`, for which the inhibition in experiment [1] turned out to be 3%. For the same compound, the 50% inhibitory concentration (IC50) in the experiment listed under Mus musculus is more than 10000 nM.

Regarding `Cc1c(C(=O)c2ccc(-c3ccccc3)cc2)c2ccccc2n1CCN1CCOCC1`, the inhibition in experiment [1] amounted to 9%. The compound also showed an IC50 in the experiment listed under Mus musculus of 10000 nM.

In the case of `C[N+]1(CCn2cc(C(=O)c3cccc4ccccc34)c3ccccc32)CCOCC1`, the inhibition in experiment [1] turned out to be 14%. Half-maximal inhibition in the experiment filed under Mus musculus (IC50) required 180 nM.

Turning to `Cc1c(C(=O)c2cccc3ccccc23)c2ccccc2n1C(C)CN1CCOCC1` (racemic; form 1), the inhibition in experiment [1] amounted to 79%.

`N#Cc1ccc(C(=O)c2cn(CCN3CCOCC3)c3ccccc23)c2ccccc12`: the inhibition in experiment [1] was determined as 96%. The compound further returned an IC50 in the experiment listed under Mus musculus of 4.8 nM.

Regarding `COc1ccc(C(=O)c2c(C)n(CC[N+]3([O-])CCOCC3)c3ccccc23)cc1`, in experiment [1], the inhibition is -9%. In the experiment filed under Mus musculus, this compound gave a 50% inhibitory concentration (IC50) of more than 10000 nM.

With `Cc1ccccc1C(=O)c1c(C)n(CCN2CCOCC2)c2ccccc12`, the inhibition in experiment [1] is 13%. The concentration for half-maximal inhibition (IC50) in the experiment listed under Mus musculus turned out to be 715 nM.

As to `COc1ccc(C(=O)c2c(C)n(CCN3CCOCC3)c3ccc(F)cc23)cc1`, in experiment [1], the inhibition is 19%. In the experiment listed under Mus musculus, this compound had a half-maximal inhibitory concentration (IC50) of 119 nM.

Consider `Cc1c(C(=O)c2cnc3ccccc3c2)c2ccccc2n1CCN1CCOCC1`, for which the inhibition in experiment [1] worked out at 28%. Moreover, 571 nM corresponded to half-maximal inhibition in the experiment listed under Mus musculus (IC50).

On to `COc1ccc(C(=O)c2cn(C(C)CN3CCOCC3)c3ccccc23)cc1` (stereo unspecified), for which, in experiment [1], the inhibition amounted to 35%. This compound came in with an IC50 in the experiment listed under Mus musculus of 3670 nM.

For `COc1ccc(C(=O)c2c(C)n(CCCN3CCOCC3)c3ccccc23)cc1`, the inhibition in experiment [1] is -6%. For the same compound, the midpoint of inhibition in the experiment listed under Mus musculus, the IC50, lay at 360 nM.

Turning to `COc1ccc(C(=O)c2c(C)n(CCN(C)C)c3ccccc23)cc1`, the inhibition in experiment [1] stood at 11%.

For `Cc1c(C(=O)c2ccccc2C#N)c2ccccc2n1CCN1CCOCC1`, the inhibition in experiment [1] worked out at 0%.

`Cc1c(C(=O)c2ccccc2Cl)c2ccccc2n1CCN1CCOCC1`: the inhibition in experiment [1] came out at 59%. It took 92 nM to reach half-maximal inhibition in the experiment filed under Mus musculus (IC50).

For the compound `Cc1c(C(=O)c2cccc3cc4ccccc4cc23)c2ccccc2n1CCN1CCOCC1`, the inhibition in experiment [1] is 74%. In the experiment filed under Mus musculus, this compound had an IC50 of 57 nM.

In the case of `CC(CN1CCOCC1)n1cc(C(=O)c2cccc3ccccc23)c2ccccc21` (racemic; form 2), the inhibition in experiment [1] stood at 94%.

`Cc1c(C(=O)c2cccc(F)c2)c2ccccc2n1CCN1CCOCC1`: the inhibition in experiment [1] worked out at 38%.

For `Cc1c(C(=O)c2cccc(C#N)c2)c2ccccc2n1CCN1CCOCC1`, in experiment [1], the inhibition stood at 1%.

With `COc1ccc(C(=O)c2c(C)n(CCN3CCOCC3)c3ccc(C)cc23)cc1`, the inhibition in experiment [1] amounted to 7%. The compound further yielded a 50% inhibitory concentration (IC50) in the experiment filed under Mus musculus of more than 10000 nM.

Take `COc1ccc(C(=O)c2c(C)n(CCN3CCCC3)c3ccccc23)cc1`: in experiment [1], the inhibition was found to be 7%. This compound also displayed an IC50 in the experiment listed under Mus musculus of 241 nM.

For the compound `COc1ccc(C(=O)c2c(C)n(CCN3CCOCC3)c3ccc(OC)cc23)cc1`, the inhibition in experiment [1] was 14%. In the experiment listed under Mus musculus, this compound came in with a 50% inhibitory concentration (IC50) of more than 10000 nM.

Take `COc1ccc(C(=O)c2c(C#N)n(CCN3CCOCC3)c3ccccc23)cc1`: the inhibition in experiment [1] turned out to be 3%.

With `COc1ccc(C(=O)c2cn(CCN3CCOCC3)c3cc(Br)ccc23)cc1`, in experiment [1], the inhibition was 21%. In the experiment listed under Mus musculus, the concentration for half-maximal inhibition (IC50) was determined as 17 nM.

Consider `COc1ccc(C(=O)c2c(C)n(C(C)CN3CCOCC3)c3ccccc23)cc1` (stereo unspecified), for which the inhibition in experiment [1] amounted to 34%. In addition, the concentration for half-maximal inhibition (IC50) in the experiment filed under Mus musculus worked out at 1360 nM.

Turning to `COc1ccc(C(=O)c2c(C)n(CCN3CCS(=O)(=O)CC3)c3ccccc23)cc1`, the inhibition in experiment [1] was -4%.

As to `COc1ccc(C(=O)c2c(F)n(CCN3CCOCC3)c3ccccc23)cc1`, in experiment [1], the inhibition was 7%.

For `COc1ccc(C(=O)c2c(C)n(CCN3CCOCC3)c3c(OC)cccc23)cc1`, the inhibition in experiment [1] was determined as 64%. Also, half-maximal inhibition in the experiment filed under Mus musculus (IC50) was put at 266 nM.

As for `Cc1c(C(=O)c2ccccc2O)c2ccccc2n1CCN1CCOCC1`, in experiment [1], the inhibition is -2%.

In the case of `Cc1c(C(=O)c2cc3ccccc3c3ccccc23)c2ccccc2n1CCN1CCOCC1`, the inhibition in experiment [1] worked out at 75%. For the same compound, in the experiment listed under Mus musculus, the half-maximal inhibitory concentration (IC50) stood at 175 nM.

With `COc1ccc(C(=O)c2c(O)n(CCN3CCOCC3)c3ccccc23)cc1`, in experiment [1], the inhibition is 1%.

Consider `Cc1c(C(=O)c2ccc(O)cc2)c2ccccc2n1CCN1CCOCC1`, for which the inhibition in experiment [1] worked out at 15%. Moreover, in the experiment filed under Mus musculus, the concentration for half-maximal inhibition (IC50) was more than 10000 nM.

On to `Cc1c(C(=O)c2ccc(F)cc2)c2ccccc2n1CCN1CCOCC1`, for which the inhibition in experiment [1] was 12%.

On to `COc1cccc(C(=O)c2c(C)n(CCN3CCOCC3)c3ccccc23)c1`, for which the inhibition in experiment [1] came to 76%. Besides, the IC50 in the experiment listed under Mus musculus was determined as 206 nM.

With `COc1ccc(C(=O)c2c(C)n(CCO)c3ccccc23)cc1`, the inhibition in experiment [1] was -6%. This compound also gave a half-maximal inhibitory concentration (IC50) in the experiment filed under Mus musculus of more than 10000 nM.

For `Cc1cc(C)cc(C(=O)c2c(C)n(CCN3CCOCC3)c3ccccc23)c1`, the inhibition in experiment [1] worked out at 42%. This compound also yielded an IC50 in the experiment filed under Mus musculus of 390 nM.

In the case of `COc1ccc(C(=O)c2c(C)n(CCN3CCOCC3)c3cccc(C)c23)cc1`, the inhibition in experiment [1] was 42%. Further, in the experiment listed under Mus musculus, the IC50 was more than 10000 nM.

As for `Cc1c(C(=O)c2ccc3ccc4cccc5ccc2c3c45)c2ccccc2n1CCN1CCOCC1`, in experiment [1], the inhibition is 89%. This compound also showed an IC50 in the experiment filed under Mus musculus of 42 nM.

On to `Cc1c(C(=O)c2cccc3ccccc23)c2ccccc2n1CC(=O)O`, for which, in experiment [1], the inhibition amounted to 21%. In the experiment listed under Mus musculus, this compound returned an IC50 of 9740 nM.

For `COc1ccc(C(=O)c2c(C)n(CCN3CCCCC3)c3ccccc23)cc1`, the inhibition in experiment [1] came out at 34%. In addition, the IC50 in the experiment listed under Mus musculus is 1430 nM.

For `Cc1c(C(=O)c2ccc(C#N)cc2)c2ccccc2n1CCN1CCOCC1`, the inhibition in experiment [1] was -1%. The 50% inhibitory concentration (IC50) in the experiment listed under Mus musculus was more than 10000 nM.

For the compound `COc1ccc(C(=O)c2c(Cl)n(CCN3CCOCC3)c3ccccc23)cc1`, the inhibition in experiment [1] stood at 47%. In the experiment filed under Mus musculus, this compound showed a half-maximal inhibitory concentration (IC50) of 176 nM.

With `Cc1c(C(=O)c2ccc(C(C)(C)C)cc2)c2ccccc2n1CCN1CCOCC1`, the inhibition in experiment [1] was determined as 56%.

For the compound `O=C(c1ccc(Br)c2ccccc12)c1cn(CCN2CCOCC2)c2ccccc12`, the inhibition in experiment [1] was found to be 98%. Also, in the experiment listed under Mus musculus, the midpoint of inhibition, the IC50, lay at 5.5 nM.

Consider `Cc1ccc(C(=O)c2cn(CCN3CCOCC3)c3ccccc23)c2ccccc12`, for which the IC50 at Cannabinoid receptor 1 is 2.8 nM; in the experiment filed under Mus musculus it was 3.6 nM.
